Numbers after ± are expanded uncertainties.

This data set in a line: molar enthalpy of vaporization or sublimation. As to conditions: 298.15 K; Crystal; Static calorimetry.

For `O=C1Cc2ccccc2O1` [2-coumaranone], the molar enthalpy is 18.8 ± 0.406 kcal/mol.

For `O=C1COc2ccccc21` [3-coumaranone], the molar enthalpy came to 20.5 ± 0.406 kcal/mol.

These data come from the NIST ThermoML archive (doi:10.1016/j.jct.2013.08.012).
